From US9156811B2 (priority 2008, dated 2015)
Like-named read-outs stand apart in the source and are kept apart here.

What was measured:
[1] = target: T. brucei N-myristoyl transferase (Trypanosoma brucei brucei (strain 927/4 GUTat10.1), UniProt Q388H8); assay: biochemical; assay type: biochemical
[2] = tested on: Trypanosome (T. brucei brucei); assay: In-vitro antitrypanosomal efficacy assay (cell growth, resazurin); assay type: cell-based
[3] = value printed without enzyme tag in the NMT Enzyme column (taken as T. brucei NMT), read-out: IC50 (μM) NMT Enzyme
[4] = T. brucei brucei, blood stream form, variant 221
[5] = value with no enzyme tag in the cell, taken as T. brucei NMT, read-out: IC50 (μM) NMT Enzyme

T. brucei N-myristoyl transferase, sequence (Q388H8 1-446): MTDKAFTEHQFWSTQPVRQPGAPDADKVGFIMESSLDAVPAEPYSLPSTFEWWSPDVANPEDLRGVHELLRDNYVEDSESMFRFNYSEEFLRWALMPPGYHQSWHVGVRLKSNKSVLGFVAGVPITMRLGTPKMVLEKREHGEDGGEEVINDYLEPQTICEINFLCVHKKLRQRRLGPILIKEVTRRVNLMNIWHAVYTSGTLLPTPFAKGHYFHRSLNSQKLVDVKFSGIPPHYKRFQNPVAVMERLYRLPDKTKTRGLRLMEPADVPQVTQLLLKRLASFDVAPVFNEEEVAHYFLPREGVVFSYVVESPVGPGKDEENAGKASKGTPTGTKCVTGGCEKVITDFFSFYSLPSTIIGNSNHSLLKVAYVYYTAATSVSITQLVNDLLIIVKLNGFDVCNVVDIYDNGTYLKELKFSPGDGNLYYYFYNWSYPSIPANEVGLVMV

IC50 [1, 3]	Structure (SMILES)	ED50 (μM) T. brucei ([2]; T. brucei cell growth)	also measured
8.4 µM	Cc1nn(C)c(C)c1N[S+](=O)([O-])c1ccc2ccccc2c1 [DDD71246]	>1 µM	
42 µM	CC(=O)c1ccc([S+](=O)([O-])Nc2c(C)nn(C)c2C)cc1 [DDD71232]	>1 µM	
2.6 µM	COc1ccc([S+](=O)([O-])Nc2c(C)nn(C)c2C)cc1Br [DDD71233]	>1 µM	
0.12 µM	Cc1nn(C)c(C)c1N[S+](=O)([O-])c1ccc(NCCCN2CCN(C)CC2)nc1 [DDD85627]	0.62 µM	
2.4 µM	Cc1nn(C)c(C)c1N[S+](=O)([O-])c1ccc(CSCc2ccccc2)cc1 [DDD85599]	>1 µM	
	CCCNCc1cccc(-c2ccc([S+](=O)([O-])Nc3c(CC(C)C)nn(C)c3C)cc2)c1 [DDD100800]		IC50 ([1]; T. brucei NMT, value without parentheses, read-out: IC50 (μM) NMT Enzyme (T. brucei NMT)): 0.006 µM; ED50 (μM) T. brucei [2, 4]: 0.052 µM
0.36 µM	Cc1nn(C)c(C)c1N[S+](=O)([O-])c1ccc(N(C)Cc2ccc(CN(C)C)cc2)nc1 [DDD85624]	1.5 µM	
	Cc1nn(C)c(C)c1N[S+](=O)([O-])c1ccc(N2CCC(N3CCNCC3)C2)nc1 (centres unmarked) [DDD88008]	18.0 µM	IC50 [1, 5]: 0.11 µM
	Cc1nn(C)c(C)c1N[S+](=O)([O-])c1ccc(-c2cccc(CN)c2)cc1 [DDD88560]	2.15 µM	IC50 [1, 5]: 0.054 µM
	Cc1nn(C)c(C)c1N[S+](=O)([O-])c1ccc(NCCN2CCN(C)CC2c2ccccc2)nc1 (centres unmarked) [DDD86304]	>1 µM	IC50 [1, 5]: 1 µM
10.7 µM	Cc1nn(C)c(C)c1N[S+](=O)([O-])c1ccc(N2CCN(c3ccc(F)cc3)CC2)nc1 [DDD73230]	>1 µM	
0.67 µM	Cc1nn(C)c(C)c1N(CC1CC1)[S+](=O)([O-])c1c(Cl)cc(Br)cc1Cl [DDD85625]	4.6 µM	
	Cc1nn(C)c(C)c1N[S+](=O)([O-])c1ccc(NCCCN2CCN(c3ccccc3)CC2)nc1 [DDD86291]	>1 µM	IC50 [1, 5]: 1 µM
	Cc1nn(C)c(C)c1N[S+](=O)([O-])c1ccc(COCCCCN(C)C)cc1 [DDD85650]	>1 µM	IC50 [1, 5]: 52.6 µM
	Cc1nn(C)c(C)c1N(C)[S+](=O)([O-])c1ccc(Br)cc1 [DDD87766, 4-Bromo-N-methyl-N-(1,3,5-trimethyl-1H-pyrazol-4-yl)-benzenesulfonamide]	>1 µM	
	Cc1nn(C)c(C)c1N[S+](=O)([O-])c1c(Cl)cc(CCCN2CCN(C)CC2)cc1Cl [DDD87769, 2,6-Dichloro-4-[3-(4-methyl-piperazin-1-yl)-propyl]-N-(1,3,5-trimethyl-1H-pyrazol-4-yl)-benzenesulfonamide]	0.008 µM	
	Cc1nn(C)c(C)c1N[S+](=O)([O-])c1cc(Cl)cc(Cl)c1O [DDD73229]	>1 µM	
	Cc1cc(CCCN2CCN(C)CC2)cc(C)c1[S+](=O)([O-])N(C)c1c(C)nn(C)c1C [DDD99818]	0.047 µM	
	Cc1nn(C)c(C)c1N(C(F)F)[S+](=O)([O-])c1c(Cl)cc(CCCN2CCN(C)CC2)cc1Cl [DDD100086]		ED50 (μM) T. brucei [2, 4]: 0.012 µM
	Cc1nn(C)c(C)c1N[S+](=O)([O-])c1ccc(N(C)CCO)nc1 [DDD86307]	>1 µM	
	Cc1c(N[S+](=O)([O-])c2c(Cl)cc(Br)cc2Cl)c(CC(C)C)nn1C [DDD88198, 4-Bromo-2,6-dichloro-N-(3-isobutyl-1,5-dimethyl-1H-pyrazol-4-yl)-benzenesulfonamide]	2.3 µM	

Structure (SMILES)	IC50 [1, 3]	ED50 (μM) T. brucei ([2]; T. brucei cell growth)	also measured
Cc1nn(C)c(C)c1N[S+](=O)([O-])c1ccc(COc2ccc3cc[nH]c3c2)cc1 [DDD73507]	4.5 µM	>1 µM	
Cc1nn(C)c(C)c1N[S+](=O)([O-])c1ccc(NCC(O)c2ccccc2)nc1 (centres unmarked) [DDD73330]	2.3 µM	>1 µM	
Cc1nn(C)c(C)c1N[S+](=O)([O-])c1ccc(N2CCOCC2)nc1 [DDD71274]	2 µM	>1 µM	
